Experimental data: patent EP2951180B1, “2,6,7,8 SUBSTITUTED PURINES AS HDM2 INHIBITORS” (Merck Sharp & Dohme Corp., priority 2013, dated 2014)
Where two headings read alike, the source gives them in different places.

Molecular target: T1, HDM2 (Homo sapiens, UniProt Q00987)
T1 construct: Thioredoxin (N); made in house; host or cells: E. coli strain BL21(DE3)Rosetta
Assay: HDM2 FRET assay (inhibition of binding of FITC labeled p53-pocket peptide to HDM2)
Conditions: read-out: FRET IC50
From the text: Methods: An HDM2 FRET assay was developed to assess the compounds' inhibitory activity towards binding of p53 protein. […] Protein was purified using Ni-affinity chromatography, followed by size exclusion chromatography using Superdex 75 26/60 column. […] The HDM2 assay buffer contained 1x Phosphate Buffered Saline (Invitrogen, Cat#14190), 0.01% BSA (Jackson ImmunoResearch, Cat# 001-000-162), 0.01% Tween-20. In the 1X assay buffer recombinant HDM2 protein, peptide and Lumi4-Tb Cryptate-conjugate mouse anti-6xHis antibody (cisbio, Cat#Tb61HISTLB) were added and transferred to ProxiPlate PLUS (PerkinElmer, Cat#6008269), containing compounds so that final DMSO concentration is 0.1% . Final concentrations of reagents in the assay wells are 0.5 nM HDM2, 0.25nM anti HIS (Tb label) antibody and 3nM peptide. […] Ratio of em520/em495 was used to calculate %inhibition and to obtain IC50 with 4-parameter logistic equation.
IC50 DETERMINATIONS: Dose-response curves were plotted from the inhibition data, from 10 point serial dilutions of inhibitory compounds. Concentration of compound was plotted against em520/Cem495 ratio signal. To generate IC50 values, the dose-response curves were fitted to a standard sigmoidal curve and IC50 values were derived by nonlinear regression analysis.

[1] = 0.5 nM HDM2 (residues 17 to 125), 3nM peptide, two hour incubation at room temperature

T1 sequence (Q00987 17-125): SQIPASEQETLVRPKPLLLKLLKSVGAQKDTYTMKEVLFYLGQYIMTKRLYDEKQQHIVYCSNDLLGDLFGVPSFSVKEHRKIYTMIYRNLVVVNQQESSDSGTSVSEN

SMILES: C[C@@H](Nc1nc(-c2noc(=O)[nH]2)nc2nc(N3CCCCC3CF)n(Cc3ccc(C(F)(F)F)cc3)c12)C1CCC1 (stereo partly drawn) [Example 9.90, 3-(6-{[(1R)-1-cyclobutylethyl]amino}-8-[2-(fluoromethyl)piperidin-1-yl]-7-[4-(trifluoromethyl)benzyl]-7H-purin-2-yl)-1,2,4-oxadiazol-5(4H)-one]
- IC50 (Table 9): 12.1 nM

SMILES: C[C@H]1CC[C@H](Cn2c(N3CCOC[C@H]3c3ccccc3)nc3nc(C(=O)O)nc(-c4cccc(Cl)c4)c32)CC1 [Example 16.22, 6-(3-chlorophenyl)-7-[(trans-4-methylcyclohexyl)methyl]-8-[(3R)-3-phenylmorpholin-4-yl]-7H-purine-2-carboxylic acid]
- IC50 [1]: 0.68 nM

SMILES: C[C@@H](Nc1nc(C(=O)O)nc2nc(N3CCCCC3Cc3cccc(C(F)(F)F)c3)n(Cc3ccc(C(F)(F)F)cc3)c12)C1CCC1 (stereo partly drawn) [Example 9.68, 6-{[(1R)-1-cyclobutylethyl]amino}-7-[4-(trifluoromethyl)benzyl]-8-{2-[3-(trifluoromethyl)benzyl]piperidin-1-yl}-7H-purine-2-carboxylic acid]
- IC50 (Table 9): 110 nM

SMILES: C[C@@H](Nc1nc(-c2noc(=O)[nH]2)nc2nc(C(C)(F)c3ccccc3)n(C[C@H]3CC[C@H](C)CC3)c12)C1CCC1 (single isomer, unassigned) [Example 22.78]
- IC50 (Table 22): 12.3 nM

SMILES: CONC(=O)c1nc(N[C@H](C)C2CCC2)c2c(n1)nc(-c1cc(C(C)C)ccn1)n2Cc1ccc(C(F)(F)F)cc1 [Example 12.32, 6-{[(1R)-1-cyclobutylethyl]amino}-N-methoxy-8-[4-(1-methylethyl)pyridin-2-yl]-7-[4-(trifluoromethyl)benzyl]-7H-purine-2-carboxamide]
- IC50 [1]: 42.5 nM

SMILES: C[C@@H]1COCCN1c1nc2nc(CC(=O)O)nc(-c3cccc(Cl)c3)c2n1C[C@H]1CC[C@H](C)CC1 [Example 26.2, {6-(3-chlorophenyl)-7-[(trans-4-methylcyclohexyl)methyl]-8-[(3R)-3-methylmorpholin-4-yl]-7H-purin-2-yl} acetic acid]
- IC50 (Table 26): 783 nM

SMILES: CC1CCCN(c2nc3nc(C(=O)O)nc(N[C@H](C)C4CCC4)c3n2C[C@H]2CC[C@H](C)CC2)C1C (stereo partly drawn) [Example 11.1, 6-(((R)-1-cyclobutylethyl)amino)-8-(2,3-dimethylpiperidin-1-yl)-7-((trans-4-methylcyclohexyl)methyl)-7H-purine-2-carboxylic acid]
- IC50 (Table 11): 4.55 nM

SMILES: C[C@H]1CC[C@H](Cn2c(N3CCO[C@@H]4CCC[C@H]43)nc3nc(-c4n[nH]c(=O)o4)nc(-c4cncc(Cl)c4)c32)CC1 [Example 16.90, 5-{6-(5-chloropyridin-3-yl)-8-[(4aR,7aR)-hexahydrocyclopenta [b][1,4]oxazin-4(4aH)-yl]-7-[(trans-4-methylcyclohexyl)methyl]-7H-purin-2-yl}-1,3,4-oxadiazol-2(3H)-one]
- IC50 [1]: 2.28 nM

SMILES: C[C@@H](Nc1nc(C(=O)O)nc2nc(N3CCc4ccccc4C3)n(C[C@H]3CC[C@H](C)CC3)c12)C1CCC1 [Example 11.17, 6-{[(1R)-1-cyclobutylethyl]amino}-8-(3,4-dihydroisoquinolin-2(1H)-yl)-7-[(trans-4-methylcyclohexyl)methyl]-7H-purine-2-carboxylic acid]
- IC50 (Table 11): 17.9 nM

SMILES: C[C@H]1CC[C@H](Cn2c(N3CCOC[C@H]3c3ccccc3)nc3nc(-c4noc(=O)[nH]4)nc(-c4ccnc(Cl)c4)c32)CC1 [Example 16.110, 3-{6-(2-chloropyridin-4-yl)-7-[(trans-4-methylcyclohexyl)methyl]-8-[(3R)-3-phenylmorpholin-4-yl]-7H-purin-2-yl}-1,2,4-oxadiazol-5(4H)-one]
- IC50 [1]: 1.14 nM

SMILES: C[C@@H](Nc1nc(C(=O)O)nc2nc(N3CCCC[C@@H]3c3ccccc3)n(Cc3ccc(C(F)(F)F)cc3)c12)C1CCC1 [Example 9.62, 6-{[(1R)-1-cyclobutylethyl]amino}-8-[(2R)-2-phenylpiperidin-1-yl]-7-[4-(trifluoromethyl)benzyl]-7H-purine-2-carboxylic acid]
- IC50 (Table 9): 17.3 nM

SMILES: CC([C@H]1CC[C@H](C)CC1)n1c(N2CCOC3CCCC32)nc2nc(-c3n[nH]c(=O)o3)nc(N[C@H](C)C3CCC3)c21 (stereo partly drawn) [Example 18.44, 5-(6-{ [(1R)-1-cyclobutylethyl]amino}-8-(hexahydrocyclopenta[b] [1,4]oxazin-4(4aH)-yl)-7-[1-(trans-4-methylcyclohexyl)ethyl]-7H-purin-2-yl)-1,3,4-oxadiazol-2(3H)-one]
- IC50 (Table 18): 5.37 nM

SMILES: C[C@@H]1CN(C(=O)C(C)(C)C)CCN1c1nc2nc(-c3noc(=O)[nH]3)nc(N[C@H](C)C3CCC3)c2n1C[C@H]1CC[C@H](C)CC1 [Example 17.15, 3-(6-{[(1R)-1-cyclobutylethyl]amino}-8-[(2R)-4-(2,2-dimethylpropanoyl)-2-methylpiperazin-1-yl]-7-[(trans-4-methylcyclohexyl)methyl]-7H-purin-2-yl)-1,2,4-oxadiazol-5(4H)-one]
- IC50 (Table 17.2): 4.3 nM

SMILES: COC(c1cscn1)c1nc2nc(-c3noc(=O)[nH]3)nc(N[C@H](C)C3CCC3)c2n1C[C@H]1CC[C@H](C)CC1 (stereo partly drawn) [Example 22.74, 3-(6-{[(1R)-1-cyclobutylethyl]amino}-8-[methoxy(1,3-thiazol-4-yl)methyl]-7-[(trans-4-methylcyclohexyl)methyl] -7H-purin-2-yl)-1,2,4-oxadiazol-5(4H)-one]
- IC50 (Table 22): 2.63 nM

SMILES: Cc1cccc(-c2nc3nc(C(=O)O)nc(NC(C)C4CCCC4)c3n2Cc2ccc(C(F)(F)F)cc2)c1 (centres unmarked) [Example 6.32, 6-[(1-cyclopentylethyl)amino]-8-(3-methylphenyl)-7-[4-(trifluoromethyl)benzyl]-7H-purine-2-carboxylic acid]
- IC50 (Table 6): 373 nM

SMILES: C[C@@H](Nc1nc(-c2noc(=O)[nH]2)nc2nc(N3CCC[C@@H]4CCCC[C@H]43)n(C[C@H]3CC[C@H](C)CC3)c12)C1CCC1 [Example 11.61, 3-(6-{[(1R)-1-cyclobutylethyl]amino}-7-[(trans-4-methylcyclohexyl)methyl]-8-[(4aS,8aR)-octahydroquinolin-1(2H)-yl]-7H-purin-2-yl)-1,2,4-oxadiazol-5(4H)-one]
- IC50 (Table 11): 5.13 nM

SMILES: C[C@H]1OCCN(c2nc3nc(-c4noc(=O)[nH]4)nc(-c4cncc(Cl)c4)c3n2C[C@H]2CC[C@H](C)CC2)[C@@H]1c1ccccc1 [Example 16.135, 3-{6-(5-chloropyridin-3-yl)-7-[(trans-4-methylcyclohexyl)methyl]-8-[(2R,3R)-2-methyl-3-phenylmorpholin-4-yl]-7H-purin-2-yl}-1,2,4-oxadiazol-5(4H)-one]
- IC50 [1]: 0.504 nM

SMILES: O=C(O)c1nc(NCC2CC2)c2c(n1)nc(-c1cccc(Cl)c1)n2Cc1ccc(Cl)cc1 [Example 6.12, 7-(4-chlorobenzyl)-8-(3-chlorophenyl)-6-[(cyclopropylmethyl)amino]-7H-purine-2-carboxylic acid]
- IC50 (Table 6): 4100 nM

SMILES: CC(C)CN(C)c1nc2nc(C(=O)O)nc(N[C@H](C)C3CCC3)c2n1C[C@H]1CC[C@H](C)CC1 [Example 11.30, 6-{[(1R)-1-cyclobutylethyl]amino}-7-[(trans-4-methylcyclohexyl)methyl]-8-[methyl(2-methylpropyl)amino] -7H-purine-2-carboxylic acid]
- IC50 (Table 11): 1.65 nM

SMILES: CC([C@H]1CC[C@H](C)CC1)n1c(N2CCC[C@H]2C(F)(F)F)nc2nc(-c3noc(=O)[nH]3)nc(-c3cncc(Cl)c3)c21 (stereo partly drawn) [Example 18.49, 3-{6-(5-chloropyridin-3-yl)-7-[1-(trans-4-methylcyclohexyl)ethyl]-8-[(2S)-2-(trifluoromethyl)pyrrolidin-1-yl]-7H-purin-2-yl}-1,2,4-oxadiazol-5(4H)-one]
- IC50 (Table 18): 0.67 nM
